Tests used:
[1] = Selectivity index, ratio of IC50 for rat L6 cells to IC50 for Plasmodium falciparum K1; format: toxicity, cell-based; conditions: read-out: Ratio IC50
[2] = Selectivity index, ratio of IC50 for rat L6 cells to IC50 for Leishmania donovani MHOM/ET/67/L82; format: toxicity, cell-based; conditions: read-out: Ratio IC50
[3] = test system: Trypanosoma brucei rhodesiense; experiment: Antiprotozoal activity against Trypanosoma brucei rhodesiense STIB900 at pH 7.4 by microplate assay; format: functional, organism-based
[4] = Selectivity index, ratio of IC50 for rat L6 cells to IC50 for Trypanosoma cruzi Tulahuen C4; format: toxicity, cell-based; conditions: read-out: Ratio IC50
Leishmania donovani = experiment: Antiprotozoal activity against Leishmania donovani MHOM/ET/67/L82 at pH 7.4 by microplate assay; format: functional, organism-based
L6 = experiment: Cytotoxicity against rat L6 cells; format: cell-based
[5] = Selectivity index, ratio of IC50 for rat L6 cells to IC50 for Trypanosoma brucei rhodesiense STIB900; format: toxicity, cell-based; conditions: read-out: Ratio IC50
Trypanosoma cruzi = experiment: Antiprotozoal activity against Trypanosoma cruzi Tulahuen C4 at pH 7.4 by microplate assay; format: functional, organism-based
Plasmodium falciparum = experiment: Antimalarial activity against Plasmodium falciparum K1 at pH 7.4 by microplate assay; format: functional, organism-based

Row | IC50 [3] | IC50 (Leishmania donovani) | IC50 (Trypanosoma cruzi) | IC50 (Plasmodium falciparum) | Structure (SMILES) | selectivity ratio [1] | selectivity ratio [2] | selectivity ratio [4] | IC50 (L6) | selectivity ratio [5]
1 | 88.5 µM | 20.1 µM | > 229 µM | 0.208 µM | CCN(CC)c1ccc2nc3c4ccccc4/c(=N\c4ccccc4)cc-3oc2c1 | 863 | 8.94 | < 0.79 | 180 µM | 2.03
2 | 36.2 µM | 10.7 µM | 20.9 µM | 0.253 µM | CCN(CC)c1ccc2nc3c4ccccc4/c(=N\c4ccc(C)cc4)cc-3oc2c1 | 531 | 12.5 | 6.42 | 134 µM | 3.71
3 | 11.3 µM | 2.9 µM | 143 µM | 0.045 µM | CCN(CC)c1ccc2nc3c4ccccc4/c(=N\c4cccc(OC)c4)cc-3oc2c1 | 883 | 13.9 | 0.28 | 39.6 µM | 3.52
4 | 85.4 µM | 23.3 µM | 78.8 µM | 0.215 µM | CCN(CC)c1ccc2nc3c4ccccc4/c(=N\c4ccccc4Cl)cc-3oc2c1 | 261 | 2.41 | 0.71 | 56.2 µM | 0.66
5 | 198 µM | > 205 µM | 56.9 µM | 0.135 µM | CCN(CC)c1ccc2nc3c4ccccc4/c(=N\c4ccc([N+](=O)[O-])cc4)cc-3oc2c1 | 386 | < 0.25 | 0.91 | 51.9 µM | 0.26

More lines, now with the values behind:

Row | Structure (SMILES) | IC50 [3] | IC50 (Leishmania donovani) | IC50 (Trypanosoma cruzi) | IC50 (Plasmodium falciparum) | selectivity ratio [1] | selectivity ratio [2] | selectivity ratio [4] | IC50 (L6) | selectivity ratio [5]
6 | CCN(CC)c1ccc2nc3c4ccccc4/c(=N\c4ccc(OC)cc4)cc-3oc2c1 | 14.9 µM | 5.2 µM | 20.3 µM | 0.04 µM | 1420 | 10.9 | 2.82 | 57.2 µM | 3.84
7 | CCN(CC)c1ccc2nc3c4ccccc4/c(=N\c4cccc(Cl)c4)cc-3oc2c1 | 129 µM | 28.6 µM | 76.7 µM | 0.209 µM | 617 | 4.5 | 1.68 | 129 µM | 1
8 | CCN(CC)c1ccc2nc3c4ccccc4/c(=N\c4ccc([N+](=O)[O-])cc4Cl)cc-3oc2c1 | 184 µM | 70.5 µM | 10.9 µM | 1.93 µM | 8 | 0.21 | 1.34 | 14.6 µM | 0.08
9 | CCN(CC)c1ccc2nc3c4ccccc4/c(=N\c4ccc([N+](=O)[O-])cc4C#N)cc-3oc2c1 | 147 µM | 90.6 µM | 144 µM | 0.205 µM | 302 | 0.68 | 0.43 | 61.8 µM | 0.42
10 | O=C(Cn1ccnc1[N+](=O)[O-])NCc1ccccc1 [BENZNIDAZOLE] |  |  | 0.886 µM |  |  |  |  |  | 
